Results reported in patent US20210220356A1, “DIHYDROPYRIMIDINE DERIVATIVES AND USES THEREOF IN THE TREATMENT OF HBV INFECTION OR OF HBV-INDUCED DISEASES” (Janssen Sciences Ireland Unlimited Company, priority 2018, published 2021).

Assays:
[1] = test system: HBV; experiment: HBV inhibitory activity in HepG2.2.15 cells (HBV DNA in culture medium by q-PCR); format: cell-based; details: HepG2.2.15 cells, 40,000 cells/well, 6 days of compound treatment, HBV DNA in culture medium by q-PCR, highest concentration 10 uM; read-out: EC50
Method: (§1) • HepG2.2.15 (the HepG2.2.15 cell line can be produced by transfection of the HepG2 cell line as described in Sells, Chen, and Acs 1987 (Proc. Natl. Acad. Sci. USA 84: 1005-1009), and the HepG2 cell line is available from ATCC® under number HB-8065™)
(§2) Seed the cell HepG2.2.15 cells into 96-well plate in 2% FBS culture medium at the density of 40,000 cells/well and 5,000 cells/well for HBV inhibitory activity and cytotoxicity determination, respectively. After seeding, incubate the cell plates at 37° C., 5% CO2 overnight. The next day, medium containing compounds is added to the cell to treat the cells for 6 days with medium refreshed once in the middle of the treatment. 8 dose points with 3 folds dilution of each compound were adopted and the highest concentration of the compounds is 10 uM and 100 uM for HBV inhibitory activity and cytotoxicity determination, respectively.
The HBV DAN change in the cell culture medium induced by the compounds is measured by q-PCR method. Briefly, the HBV DNA in the culture medium is extracted using QIAamp 96 DNA Blood Kit according to the manual and then quantified by q-PCR using the primers and probe in the table below.
(§3) EC50 and CC50 values are calculated by the GRAPHPAD PRISM software.

[2] = test system: HepG2.2.15 cells; experiment: Cytotoxicity determination in HepG2.2.15 cells (CCK-8); format: cell-based; details: HepG2.2.15 cells, 5,000 cells/well, 6 days of compound treatment, CCK-8 absorbance 450 nm, highest concentration 100 uM
Method: as §1, §2
After 6 days of compounds treatment, add 20 μl CCK-8 reagents to each well of cytotoxicity assay plates, incubate the plate at 37° C., 5% CO2 for 2.5 h and measure the absorbance at 450 nm wavelength, at the same time read the absorbance at 630 nm wavelength as reference.
as §3

| SMILES | EC50 [1] [µM] | CC50 [2] [µM] |
| --- | --- | --- |
| CCOC(=O)C1=C(C2CCc3nn(CCC(=O)O)cc3C2)NC(c2nccs2)=NC1c1ccc(F)c(F)c1Cl (single isomer, unassigned) [Compound 34c, 3-(5-(6-(2-chloro-3,4-difluorophenyl)-5-(ethoxycarbonyl)-2-(thiazol-2-yl)-3,6-dihydropyrimidin-4-yl)-4,5,6,7-tetrahydro-2H-indazol-2-yl)propanoic acid] | < 0.0046 | 14.9 |
| CCOC(=O)C1=C(C2CCc3nn(CCC(=O)O)cc3C2)NC(c2nccs2)=NC1c1ccc(F)c(F)c1Cl (single isomer, unassigned) [Compound 34d, 3-(5-(6-(2-chloro-3,4-difluorophenyl)-5-(ethoxycarbonyl)-2-(thiazol-2-yl)-3,6-dihydropyrimidin-4-yl)-4,5,6,7-tetrahydro-2H-indazol-2-yl)propanoic acid] | 0.146 | 20.6 |
| CCOC(=O)C1=C(C2CCc3nn(CCC(=O)O)cc3C2)NC(c2nccs2)=NC1c1ccc(F)c(F)c1C (single isomer, unassigned) [Compound 35c, 3-(5-(6-(3,4-Difluoro-2-methylphenyl)-5-(ethoxycarbonyl)-2-(thiazol-2-yl)-3,6-dihydropyrimidin-4-yl)-4,5,6,7-tetrahydro-2H-indazol-2-yl)propanoic acid] | < 0.0046 | 14.4 |
| CCOC(=O)C1=C(C2CCc3nn(CCC(=O)O)cc3C2)NC(c2nccs2)=NC1c1ccc(F)c(F)c1Br (single isomer, unassigned) [Compound 36b, 3-(5-(6-(2-Bromo-3,4-difluorophenyl)-5-(ethoxycarbonyl)-2-(thiazol-2-yl)-3,6-dihydropyrimidin-4-yl)-4,5,6,7-tetrahydro-2H-indazol-2-yl)propanoic acid] | 0.0965 | 11.7 |
| CCOC(=O)C1=C(C2CCc3nn(CCC(=O)O)cc3C2)NC(c2nccs2)=NC1c1ccc(F)cc1Cl (single isomer, unassigned) [Compound 37c, 3-(5-(6-(2-Chloro-4-fluorophenyl)-5-(ethoxycarbonyl)-2-(thiazol-2-yl)-3,6-dihydropyrimidin-4-yl)-4,5,6,7-tetrahydro-2H-indazol-2-yl)propanoic acid] | 0.0222 | 21.1 |
| CCOC(=O)C1=C(C2CCc3nn(CCC(=O)O)cc3C2)NC(c2nccs2)=NC1c1ccc(F)cc1Cl (single isomer, unassigned) [Compound 37d, 3-(5-(6-(2-Chloro-4-fluorophenyl)-5-(ethoxycarbonyl)-2-(thiazol-2-yl)-3,6-dihydropyrimidin-4-yl)-4,5,6,7-tetrahydro-2H-indazol-2-yl)propanoic acid] | 0.88 | 18.9 |
| CCOC(=O)C1=C(C2CCc3nn(CCC(=O)O)cc3C2)NC(c2nccs2)=NC1c1ccc(F)cc1C (single isomer, unassigned) [Compound 38b, 3-(5-(5-(Ethoxycarbonyl)-6-(4-fluoro-2-methylphenyl)-2-(thiazol-2-yl)-3,6-dihydropyrimidin-4-yl)-4,5,6,7-tetrahydro-2H-indazol-2-yl)propanoic acid] | 0.667 | 22.9 |
| CCOC(=O)C1=C(C2CCc3nn(CCC(=O)O)cc3C2)NC(c2nccs2)=NC1c1ccc(F)cc1C (single isomer, unassigned) [Compound 38c, 3-(5-(5-(Ethoxycarbonyl)-6-(4-fluoro-2-methylphenyl)-2-(thiazol-2-yl)-3,6-dihydropyrimidin-4-yl)-4,5,6,7-tetrahydro-2H-indazol-2-yl)propanoic acid] | 0.0146 | 19.6 |
| CCOC(=O)C1=C(C2CCc3nn(CCC(=O)O)cc3C2)NC(c2nccs2)=NC1c1ccc(F)cc1Br (single isomer, unassigned) [Compound 39c, 3-(5-(6-(2-Bromo-4-fluorophenyl)-5-(ethoxycarbonyl)-2-(thiazol-2-yl)-3,6-dihydropyrimidin-4-yl)-4,5,6,7-tetrahydro-2H-indazol-2-yl)propanoic acid] | 0.0145 | 11.9 |
| CCOC(=O)C1=C(C2CCc3nn(CCC(=O)O)cc3C2)NC(c2nccs2)=NC1c1cccc(F)c1Cl (single isomer, unassigned) [Compound 40c, 3-(5-(6-(2-Chloro-3-fluorophenyl)-5-(ethoxycarbonyl)-2-(thiazol-2-yl)-3,6-dihydropyrimidin-4-yl)-4,5,6,7-tetrahydro-2H-indazol-2-yl)propanoic acid] | 0.0331 | 12.5 |
| CCOC(=O)C1=C(C2CCc3nn(CCC(=O)O)cc3C2)NC(c2nccs2)=NC1c1cccc(F)c1C (single isomer, unassigned) [Compound 41b, 3-(5-(5-(Ethoxycarbonyl)-6-(3-fluoro-2-methylphenyl)-2-(thiazol-2-yl)-3,6-dihydropyrimidin-4-yl)-4,5,6,7-tetrahydro-2H-indazol-2-yl)propanoic acid] | 0.292 | 6.6 |
| CCOC(=O)C1=C(C2CCc3nn(CCC(=O)O)cc3C2)NC(c2nccs2)=NC1c1cccc(F)c1C (single isomer, unassigned) [Compound 41c, 3-(5-(5-(Ethoxycarbonyl)-6-(3-fluoro-2-methylphenyl)-2-(thiazol-2-yl)-3,6-dihydropyrimidin-4-yl)-4,5,6,7-tetrahydro-2H-indazol-2-yl)propanoic acid] | 0.0304 | 14.4 |
| CCOC(=O)C1=C(C2CCc3nn(CCC(=O)O)cc3C2)NC(c2nccs2)=NC1c1cccc(F)c1Br (single isomer, unassigned) [Compound 42d, 3-(5-(6-(2-bromo-3-fluorophenyl)-5-(ethoxycarbonyl)-2-(thiazol-2-yl)-3,6-dihydropyrimidin-4-yl)-4,5,6,7-tetrahydro-2H-indazol-2-yl)propanoic acid] | 0.0242 | 12.7 |
| CCOC(=O)C1=C(C2CCc3nn(CCC(=O)O)cc3C2)NC(c2ncc(F)cc2F)=NC1c1ccc(F)c(F)c1Cl (single isomer, unassigned) [Compound 43c, 3-(5-(6-(2-Chloro-3,4-difluorophenyl)-2-(3,5-difluoropyridin-2-yl)-5-(ethoxycarbonyl)-3,6-dihydropyrimidin-4-yl)-4,5,6,7-tetrahydro-2H-indazol-2-yl)propanoic acid] | 0.0059 | 29.9 |
| COC(=O)C1=C(C2CCc3nn(CCC(=O)O)cc3C2)NC(c2nccs2)=NC1c1cccc(F)c1Cl (single isomer, unassigned) [Compound 44c, 3-(5-(6-(2-Chloro-3-fluorophenyl)-5-(methoxycarbonyl)-2-(thiazol-2-yl)-3,6-dihydropyrimidin-4-yl)-4,5,6,7-tetrahydro-2H-indazol-2-yl)propanoic acid] | 0.0329 | 36.7 |
| COC(=O)C1=C(C2CCc3nn(CCC(=O)O)cc3C2)NC(c2nccs2)=NC1c1cccc(F)c1Br (single isomer, unassigned) [Compound 45c, 3-(5-(6-(2-Bromo-3-fluorophenyl)-5-(methoxycarbonyl)-2-(thiazol-2-yl)-3,6-dihydropyrimidin-4-yl)-4,5,6,7-tetrahydro-2H-indazol-2-yl)propanoic acid] | 0.0473 | 32.2 |
| COC(=O)C1=C(C2CCc3nn(CCC(=O)O)cc3C2)NC(c2nccs2)=NC1c1ccc(F)c(F)c1Br (single isomer, unassigned) [Compound 46d, 3-(5-(6-(2-Bromo-3,4-difluorophenyl)-5-(methoxycarbonyl)-2-(thiazol-2-yl)-3,6-dihydropyrimidin-4-yl)-4,5,6,7-tetrahydro-2H-indazol-2-yl)propanoic acid] | 0.0136 | 10.7 |
| COC(=O)C1=C(C2CCc3nn(CCC(=O)O)cc3C2)NC(c2nccs2)=NC1c1ccc(F)cc1Cl (single isomer, unassigned) [Compound 47b, 3-(5-(6-(2-Chloro-4-fluorophenyl)-5-(methoxycarbonyl)-2-(thiazol-2-yl)-3,6-dihydropyrimidin-4-yl)-4,5,6,7-tetrahydro-2H-indazol-2-yl)propanoic acid] | 0.47 | 37.7 |
| COC(=O)C1=C(C2CCc3nn(CCC(=O)O)cc3C2)NC(c2nccs2)=NC1c1ccc(F)cc1Cl (single isomer, unassigned) [Compound 47c, 3-(5-(6-(2-Chloro-4-fluorophenyl)-5-(methoxycarbonyl)-2-(thiazol-2-yl)-3,6-dihydropyrimidin-4-yl)-4,5,6,7-tetrahydro-2H-indazol-2-yl)propanoic acid] | 0.147 | > 100 |
| CCOC(=O)C1=C(C2CCc3nn(C(C)CC(=O)O)cc3C2)NC(c2nccs2)=NC1c1ccc(F)c(F)c1Cl (single isomer, unassigned) [Compound 52b, 3-(5-(6-(2-chloro-3,4-difluorophenyl)-5-(ethoxycarbonyl)-2-(thiazol-2-yl)-3,6-dihydropyrimidin-4-yl)-4,5,6,7-tetrahydro-2H-indazol-2-yl)butanoic acid] | – | 5.8 |
